The values that follow come from patent US8178077B2, “Drug development target protein and target gene, and method of screening” (Reverse Proteomics Research Institute Co., Ltd., priority 2004, dated 2012).

Assay [1] addresses T1, FLJ20589 clone-derived protein (human hippocalcin-like protein 1, VILIP-3) (Homo sapiens, UniProt P37235).
T1 construct: A human full-length cDNA clone was expressed as a protein with an N-terminal His tag; His tag (N); made in house; host or cells: Escherichia coli BL21star(DE3)pLysS (pDEST17 Gateway expression plasmid)
Nature of the assay: SEC/MS interaction analysis (size exclusion spin column and mass analysis) with FLJ20589 clone-derived protein. It counts as binding.

Assay [2] has as its target T2, FLJ39196 clone-derived protein (human neurocalcin δ) (Homo sapiens, UniProt P61601).
T2 construct: A human full-length cDNA clone was expressed as a protein with an N-terminal His tag; His tag (N); made in house; host or cells: Escherichia coli BL21star(DE3)pLysS (pDEST17 Gateway expression plasmid)
Description: SEC/MS interaction analysis (size exclusion spin column and mass analysis) with FLJ39196 clone-derived protein. It counts as binding. The essentials: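 Unmodified, non-immobilized protein was mixed with compound and separated by size exclusion on 384-well Unifilter 100 spin columns packed with 10 μL Bio-Gel P6. The protein-fraction filtrate was collected in 50% acetonitrile, deproteinized, concentrated, redissolved in 10 μL of 50% methanol, and 2 μL was injected for ESI mass analysis of compound spectral intensity.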

Setting [3] is: protein 0 μM (protein-free reference), compound 1 μM.
Where [4] appears, read: protein 0 μM (protein-free reference), compound 10 μM.
The mark [5] stands for this setting: protein 0 μM (protein-free reference), compound 100 μM.
Setting [6] is: protein 0 μM (protein-free reference), compound 250 μM.
Setting [7] is: protein 23.75 μM, compound 1 μM.
Where [8] appears, read: protein 23.75 μM, compound 10 μM.
The mark [9] stands for this setting: protein 23.75 μM, compound 100 μM.
Setting [10] is: protein 23.75 μM, compound 250 μM.
Setting [11] is: protein 47.5 μM, compound 10 μM.
Where [12] appears, read: protein 47.5 μM, compound 100 μM.
Where [13] appears, read: protein 47.5 μM, compound 250 μM.

As for `CN1CCN(CCCN2c3ccccc3Sc3ccc(C(F)(F)F)cc32)CC1` [Trifluoperazine], the “spectral intensity of the compound in the SEC spin column filtrate (protein fraction)” value (from here on “spectral intensity … (protein fraction)”) is 1499445 in assay [1] (setting [3]); 1420853 in assay [1] (setting [4]); 2266965 in assay [1] (setting [5]); 4146130 in assay [1] (setting [6]); 469062 in assay [1] (setting [7]); 893634 in assay [1] (setting [8]). In addition, the “spectral intensity … (protein fraction)” value in assay [1] (setting [9]) amounted to 41947038; in assay [1] (setting [10]), 57062370; in assay [1] (protein 47.5 μM, compound 1 μM) it was 459554; in assay [1] (setting [11]) it was 2953415; in assay [1] (setting [12]), 67433540; in assay [1] (setting [13]) it was 116228047. Also, the “spectral intensity … (protein fraction)” value in assay [2] (setting [3]) is 6645734; in assay [2] (setting [4]) it was 7904072; in assay [2] (setting [5]), 204390563; in assay [2] (setting [6]) it was 632906281; in assay [2] (setting [7]), 7580781; in assay [2] (setting [8]) it was 40058178. Further, the “spectral intensity … (protein fraction)” value in assay [2] (setting [9]) came to 293702761; in assay [2] (setting [10]) it was 1292987653; in assay [2] (protein 47.5 μM, compound 1 μM), 7231665; in assay [2] (setting [11]), 14142338; in assay [2] (setting [12]), 5846308; in assay [2] (setting [13]) it was 2293500744.

For `c1ccc(-c2ccc(C(c3ccccc3)n3ccnc3)cc2)cc1` (stereo not drawn) [Bifonazole], the “spectral intensity … (protein fraction)” value in assay [1] (setting [3]) amounted to 2704636; in assay [1] (setting [4]), 2935358; in assay [1] (setting [5]) it was 2558136; in assay [1] (setting [6]), 3779926; in assay [1] (setting [7]) it was 2343078; in assay [1] (setting [8]), 2189489. The “spectral intensity … (protein fraction)” value was 3826699 in assay [1] (setting [9]); 3607174 in assay [1] (setting [10]); 1367901 in assay [1] (protein 47.5 μM, compound 1 μM); 2513645 in assay [1] (setting [11]); 8024232 in assay [1] (setting [12]); 28949362 in assay [1] (setting [13]). For the same molecule, the “spectral intensity … (protein fraction)” value in assay [2] (setting [3]) amounted to 32068857; in assay [2] (setting [4]), 34579053; in assay [2] (setting [5]), 30705006; in assay [2] (setting [6]), 32278650; in assay [2] (setting [7]), 27516354; in assay [2] (setting [8]), 30253800. Moreover, the “spectral intensity … (protein fraction)” value in assay [2] (setting [9]) is recorded as 60323012; in assay [2] (setting [10]) it was 85169446; in assay [2] (protein 47.5 μM, compound 1 μM), 33844567; in assay [2] (setting [11]) it was 38342358; in assay [2] (setting [12]), 152159135; in assay [2] (setting [13]), 322219706.

Consider `O=C1CN=C(c2ccccc2)c2cc(Cl)ccc2N1CC1CC1` [prazepam], for which the “spectral intensity … (protein fraction)” value in assay [1] (setting [3]) came out at 563508; in assay [1] (setting [4]), 752185; in assay [1] (setting [5]), 5911478; in assay [1] (setting [6]) it was 8158416; in assay [1] (setting [7]) it was 372254; in assay [1] (setting [8]), 1912944. The “spectral intensity … (protein fraction)” value is 27662748 in assay [1] (setting [9]); 53037838 in assay [1] (setting [10]); 603084 in assay [1] (protein 47.5 μM, compound 1 μM); 8279573 in assay [1] (setting [11]); 67316791 in assay [1] (setting [12]); 87274751 in assay [1] (setting [13]). Also, the “spectral intensity … (protein fraction)” value in assay [2] (setting [3]) was determined as 45379226; in assay [2] (setting [4]) it was 21988256; in assay [2] (setting [5]) it was 130413200; in assay [2] (setting [6]) it was 139016191; in assay [2] (setting [7]), 38417587; in assay [2] (setting [8]), 46660512. Further, the “spectral intensity … (protein fraction)” value in assay [2] (setting [9]) came out at 258681345; in assay [2] (setting [10]), 517983224; in assay [2] (protein 47.5 μM, compound 1 μM) it was 26479402; in assay [2] (setting [11]), 67670753; in assay [2] (setting [12]), 264065408; in assay [2] (setting [13]), 706383483.

`Fc1ccc(C(c2ccc(F)cc2)N2CCN(C/C=C/c3ccccc3)CC2)cc1` [Flunarizine]: the “spectral intensity … (protein fraction)” value came to 188851 in assay [1] (setting [3]); 200579 in assay [1] (setting [4]); 198757 in assay [1] (setting [5]); 253795 in assay [1] (setting [6]); 501950 in assay [1] (setting [7]); 137693 in assay [1] (setting [8]). Also, the “spectral intensity … (protein fraction)” value in assay [1] (setting [9]) amounted to 181386; in assay [1] (setting [10]), 308575; in assay [1] (protein 47.5 μM, compound 1 μM), 58869; in assay [1] (setting [11]), 178128; in assay [1] (setting [12]) it was 2683794; in assay [1] (setting [13]), 9317332.
